According to the NIST ThermoML archive (doi:10.1021/acs.jced.5b00724):
Values joined by “and” are separate entries in the source; they are usually repeats but may differ in a detail not shown here. Identical values can stand only once. Numbers after ± are expanded uncertainties.

How the values were obtained:
[1] = wn = mass fraction of the nth substance listed; details: 298.1 K, Liquid, Vibrating tube method
[2] = excess molar enthalpy (molar enthalpy of mixing); xn = mol fraction of the nth substance listed; details: 130 kPa, Liquid, Calvet calorimetry
[3] = 350.12 K; Liquid; Closed cell (Static) method
[4] = refractive index (Na D-line) (dimensionless); details: 298.15 K; 101.33 kPa; Liquid; Standard Abbe refractometry

CC1CCC(=O)O1 (stereo not drawn) [γ-valerolactone] + O
Details	excess molar enthalpy	mass density [kg/m3]
[1], 107 kPa, w2 = 0	–	1048.8 ± 0.8
[1], 107 kPa, w2 = 0.1004	–	1047 ± 0.8
[1], 107 kPa, w2 = 0.2005	–	1044.9 ± 0.8
[1], 107 kPa, w2 = 0.3025	–	1041.7 ± 0.8
[1], 107 kPa, w2 = 0.4	–	1037.6 ± 0.8
[1], 107 kPa, w2 = 0.5	–	1032.9 ± 0.8
[1], 107 kPa, w2 = 0.6	–	1027.1 ± 0.8
[1], 108 kPa, w2 = 0.6999	–	1021.1 ± 0.8
[1], 109 kPa, w2 = 0.7999	–	1013.8 ± 0.8
[1], 109 kPa, w2 = 0.8997	–	1005.5 ± 0.8
[2], 303.2 K, x2 = 0.097	0.52 ± 0.054 kJ/mol	–
[2], 303.2 K, x2 = 0.203	0.826 ± 0.087 kJ/mol	–
[2], 303.2 K, x2 = 0.303	0.928 ± 0.094 kJ/mol	–
[2], 303.2 K, x2 = 0.4	0.907 ± 0.092 kJ/mol	–
[2], 303.2 K, x2 = 0.514	0.812 ± 0.083 kJ/mol	–
[2], 303.2 K, x2 = 0.601	0.629 ± 0.066 kJ/mol	–
[2], 303.2 K, x2 = 0.7	0.446 ± 0.046 kJ/mol	–
[2], 303.2 K, x2 = 0.801	0.243 ± 0.025 kJ/mol	–
[2], 303.2 K, x2 = 0.841	0.162 ± 0.018 kJ/mol	–
[2], 303.2 K, x2 = 0.894	0.053 ± 0.007 kJ/mol	–
[2], 303.2 K, x2 = 0.9	0.043 ± 0.009 kJ/mol	–
[2], 303.2 K, x2 = 0.914	0.0129 kJ/mol and 0.01 kJ/mol	–
[2], 303.2 K, x2 = 0.93	-0.0183 ± 0.004 kJ/mol	–
[2], 303.2 K, x2 = 0.946	-0.041 ± 0.005 kJ/mol	–
[2], 303.2 K, x2 = 0.9815	-0.076 ± 0.008 kJ/mol	–
[2], 303.2 K, x2 = 0.9906	-0.043 ± 0.005 kJ/mol	–
[2], 303.2 K, x2 = 0.9962	-0.0174 ± 0.0035 kJ/mol	–
[2], 303.2 K, x2 = 0.9981	-0.0088 ± 0.0031 kJ/mol	–
[2], 322.6 K, x2 = 0.204	0.864 ± 0.023 kJ/mol	–
[2], 322.6 K, x2 = 0.401	1.04 ± 0.027 kJ/mol	–
[2], 322.6 K, x2 = 0.503	0.969 ± 0.026 kJ/mol	–
[2], 322.6 K, x2 = 0.602	0.823 kJ/mol and 0.826 kJ/mol	–
[2], 322.6 K, x2 = 0.7	0.635 ± 0.019 kJ/mol	–
[2], 322.6 K, x2 = 0.801	0.406 ± 0.014 kJ/mol	–
[2], 322.6 K, x2 = 0.9	0.168 ± 0.011 kJ/mol	–
[2], 322.6 K, x2 = 0.95	0.0484 ± 0.0098 kJ/mol	–

O [water]
Details	refractive index	vapor or sublimation pressure [kPa]
[3]	–	41.9 ± 0.2
[4]	1.3325 ± 0.0008	–
